We go through two compounds from patent EP4467141A1, “PYRAZOLO-QUINOLINES AS SELECTIVE INHIBITORS OF GENOTOXIC STRESS-INDUCED IKK/NF- KB PATHWAYS FOR CANCER THERAPY” (Max-Delbrück-Centrum für Molekulare Medizin in der …, priority 2023, dated 2024).

The subject of assay [1] is BIRC3. The assay can be described thus: RT-qPCR mRNA expression analysis of BIRC3 in U2-OS cells after irradiation. In kind it is cell-based. To be noted: 10 µM, 8 hours after 10 Gy irradiation. (Real-time PCR tracks product formation cycle by cycle.)
Assay [2] concerns p65 nuclear translocation. Kind of assay: HCS screening: etoposide-induced p65 nuclear translocation in U2-OS cells. The conditions noted are these: Homo sapiens, U2OS, read-out: etoposide-stimulated IC50 of p65 nuclear translocation. In kind it is cell-based. Here is the method: Fig.1: Identification of inhibitors specific for DNA damage-induced NF-κB activity. (A) Flowchart representing the high-throughput chemical library screening. A screen/counter-screen strategy was used by stimulating NF-κB in U2-OS cells with etoposide (50 µM for 90 min) and hits were counter-screened with TNFα (10 ng/ml for 20 min). Cells were pre-treated with compounds (10 µM) for 1 hour before stimulation, fixed, and percent p65 nuclear translocation measured by fluorescence microscopy. IC50 values were used for final selection. (B) Comparison of mean p65 nuclear translocation following either etoposide or TNFa stimulation after treatment with each counter-screened hit compound. Values were normalized to etoposide or TNFα positive controls. Specific inhibitors (red) of DNA damage-induced NF-κB signaling were defined by setting cut-off criteria (black line). […] (E) Western blot analysis (top) and quantification (bottom) of NF-κB subunit p65 phosphorylation (S536) following 1-hour pre-treatment with DMSO, MW01 (10 µM), or MW05 (10 µM), in unstimulated, after 90 min irradiation (IR, 20 Gy), or after 20 min TNFα (10 ng/mL) conditions in U2- OS cells. […]
To identify inhibitors that selectively prevent DNA damage-induced NF-κB activation, we established a high-throughput screening platform quantifying p65 nuclear translocation, an essential step in NF-κB activation (Hayden and Ghosh, 2008). […]

One may read the IC50 as the point on the concentration scale where inhibition reaches its midpoint.

For `COc1ccc2c(c1OC)c(=O)n1c3ccc(O)cc3c3ccnc2c31` [MW01, 5-Hydroxy-10,11-dimethoxy-9H-benzo[c]indolo[3,2,1-ij][1,5]naphthyridin-9-one], in assay [1], the “upregulation of anti-apoptotic NF-κB target gene BIRC3” value is “abolished”. Besides, the IC50 in assay [2] worked out at 460 nM.

As for `COc1ccc2cc3c(N)nn(C(=O)c4cccc(N(C)C)c4)c3nc2c1` [MW05, (3-Amino-7-methoxypyrazolo[3,4-b]quinolin-1-yl)-[3-(dimethylamino)phenyl]methanone], the “upregulation of anti-apoptotic NF-κB target gene BIRC3” value in assay [1] is on record as “abolished”. In addition, in assay [2], the concentration for half-maximal inhibition (IC50) amounted to 690 nM.
